The target in this test is PDGFβ (Homo sapiens (Human), UniProt P09619). Briefly: PDGF stimulated Ca2+ signal in vitro (FLIPR, NHDF-Ad); PDGFβ cellular. Type of test: cell-based. The following applies: PDGF 10 ng/mL, amide linker compounds. The protocol:
Automated FLIPR (Fluorometric Imaging Plate Reader) technology was used to screen for inhibitors of PDGF induced increases in intracellular calcium levels in fluorescent dye loaded […] cells. NHDF-Ad (Normal human dermal fibroblasts) (Lonza) were seeded in 384-well fibronectin coated black-walled plates overnight at 37° C./5% CO2. […] Cells were washed 4 times (ELx405-CW, Bio-Tek) to remove extracellular dye.

Sequence of PDGFβ (P09619 33-1106): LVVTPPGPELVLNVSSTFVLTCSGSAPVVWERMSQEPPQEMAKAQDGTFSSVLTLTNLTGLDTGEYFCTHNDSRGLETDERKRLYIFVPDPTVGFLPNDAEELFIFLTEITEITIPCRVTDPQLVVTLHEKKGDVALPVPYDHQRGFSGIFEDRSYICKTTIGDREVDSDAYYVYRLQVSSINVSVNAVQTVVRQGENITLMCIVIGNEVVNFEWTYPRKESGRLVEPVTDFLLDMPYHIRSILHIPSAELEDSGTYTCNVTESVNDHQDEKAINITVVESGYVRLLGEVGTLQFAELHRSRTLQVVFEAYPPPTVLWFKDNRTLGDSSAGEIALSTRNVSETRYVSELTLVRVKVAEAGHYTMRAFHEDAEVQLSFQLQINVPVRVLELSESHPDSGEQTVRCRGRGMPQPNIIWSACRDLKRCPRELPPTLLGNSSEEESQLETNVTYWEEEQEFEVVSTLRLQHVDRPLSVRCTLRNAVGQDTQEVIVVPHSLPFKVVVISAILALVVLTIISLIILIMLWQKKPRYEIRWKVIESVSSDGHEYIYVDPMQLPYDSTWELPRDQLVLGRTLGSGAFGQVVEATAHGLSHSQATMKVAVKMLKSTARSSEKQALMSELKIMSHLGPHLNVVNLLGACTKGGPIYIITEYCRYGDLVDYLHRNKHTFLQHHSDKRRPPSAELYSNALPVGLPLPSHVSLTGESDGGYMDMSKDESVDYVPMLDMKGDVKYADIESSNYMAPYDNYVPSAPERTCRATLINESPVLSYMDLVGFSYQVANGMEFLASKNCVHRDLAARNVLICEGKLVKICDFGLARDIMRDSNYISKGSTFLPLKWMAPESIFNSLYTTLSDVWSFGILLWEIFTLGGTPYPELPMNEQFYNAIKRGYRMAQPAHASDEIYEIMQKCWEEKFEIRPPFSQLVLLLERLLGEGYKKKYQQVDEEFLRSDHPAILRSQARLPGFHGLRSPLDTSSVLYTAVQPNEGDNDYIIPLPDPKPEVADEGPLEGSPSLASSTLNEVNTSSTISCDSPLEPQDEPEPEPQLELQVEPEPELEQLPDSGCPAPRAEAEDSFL

With “2,3-dihydroxypropyl 5-(4-{3-[(3-methyl-2-furoyl)amino]phenoxy}pyridin-2-yl)-1H-pyrrole-3-carboxylate [Example 21]”, the IC50 came out at 39 nM. In other words, the double-digit nanomolar range.

A word on the IC50: it is the concentration that gives 50% inhibition.
